# Laboratory results as given in US8637045B2, “Therapy for lysosomal enzyme deficiencies” (University of Massachusetts, priority 2004, dated 2014).
# What was measured:
# β-glucosidase = molecular target: T1, β-glucosidase (Mus musculus, UniProt P17439); experiment: Gaucher mouse model produced with conduritol beta-epoxide; assay type: in vivo, mice
# T1 construct: from tissue; host or cells: tissues of C57/Bl mice dosed in vivo with CBE
# T1 sequence (P17439 20-515): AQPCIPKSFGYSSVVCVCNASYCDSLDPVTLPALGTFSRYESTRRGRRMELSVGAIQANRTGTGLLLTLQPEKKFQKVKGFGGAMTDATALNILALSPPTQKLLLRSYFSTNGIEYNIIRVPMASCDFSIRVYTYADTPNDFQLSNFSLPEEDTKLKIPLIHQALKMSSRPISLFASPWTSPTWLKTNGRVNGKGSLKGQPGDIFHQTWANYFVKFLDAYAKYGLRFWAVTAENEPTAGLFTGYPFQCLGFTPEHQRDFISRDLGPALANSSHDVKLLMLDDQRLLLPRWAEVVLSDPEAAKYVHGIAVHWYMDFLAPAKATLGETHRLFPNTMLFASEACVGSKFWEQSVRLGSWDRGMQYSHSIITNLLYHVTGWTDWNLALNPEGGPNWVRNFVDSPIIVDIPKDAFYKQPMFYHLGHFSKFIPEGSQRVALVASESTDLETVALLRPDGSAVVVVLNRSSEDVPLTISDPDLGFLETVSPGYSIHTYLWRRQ
# Experimental: Two mouse models of Gaucher disease were used. The first Gaucher mouse was produced by injecting C57/Bl mice with 100 mg/kg of conduritol beta-epoxide, (CBE, 7-oxabicyclo[4.1.0]heptane-2,3,4,5-tetrol), intraperitoneally daily for 3 weeks. Three weeks of treatment of 3 month old C57/Bl mice with CBE produced an approximately 50% and 500% increase in the amount of glucosylceramide in systemic tissues and brain, respectively. […] No weight or behavioral differences occurred in 3 month old treated mice. […] Expressed as percentages of total body weight there was no difference for brain, liver, and kidney, but the spleen weight was 60% of control. […] There was a 50% and 300% increase in glucocerebroside in liver tissue and brain, respectively.
# S. aureus = S. aureus killing by J774 murine macrophages loaded with YGP particles; assay type: cell-based
# Experimental: One ml of murine macrophages, J774 (5×10^5/ml) was combined with YGP, YGP:alginate—tet or tetracycline of various concentration as summarized in Table 6, above.
# The J774 cells were cultured overnight in medium (DMEM containing 10% fetal calf serum without antibiotics or glutamine). […] The microbial killing assay was set up in 96 well plates. The cultures were diluted in medium and incubated overnight to allow for metabolism and release of tet from phagocytosed YGP:alginate—tet particles. Bacterial challenge was added as indicated in Table 7 and the cultures were incubated 2 hours at 37 degrees Celsius in a CO2 incubator to permit S. aureus phagocytosis and killing by the J774 murine macrophages. After this incubation, 200 μl LB Broth (Luria-Bertani Broth: 1.0% tryptone, 0.5% yeast extract, 1.0% NaCl) was added to each culture to lyze the macrophages. Cultures were incubated at 37 degrees Celsius in an incubator to permit outgrowth of surviving S. aureus. Growth was monitored by change in pH as indicated by phenol red. The effects of YGP, YGP:alginate—tet or tetracycline were compared.
# [1] = 3 month old C57/Bl mice, 100 mg/kg intraperitoneally daily for 3 weeks
# [2] = 1 day old infant C57/Bl mice, 100 mg/kg IP daily for 3 weeks
increase in the amount of glucosylceramide in brain (β-glucosidase; [1]),increase in the amount of glucosylceramide in systemic tissues (β-glucosidase; [1]),increase in glucocerebroside in brain (β-glucosidase; [2]),increase in glucocerebroside in liver tissue (β-glucosidase; [2]),"β-glucosidase activity (β-glucosidase; C57/Bl mice, 100 mg/kg intraperitoneally daily for 3 weeks)",SMILES,spleen weight (as percentage of total body weight) (β-glucosidase; [2]),"S. aureus Killed (S. aureus; with J774, 1.25 μg/ml)","Fold Increased Killing (S. aureus; with J774, 2.5 μg/ml)","S. aureus Killed (S. aureus; with J774, 2.5 μg/ml)","S. aureus Killed (S. aureus; with J774, 5 μg/ml)","S. aureus Killed (S. aureus; with J774, 10 μg/ml)","Fold Increased Killing (S. aureus; without J774, 1.25 μg/ml)","S. aureus Killed (S. aureus; without J774, 1.25 μg/ml)","S. aureus Killed (S. aureus; without J774, 2.5 μg/ml)","S. aureus Killed (S. aureus; without J774, 5 μg/ml)","S. aureus Killed (S. aureus; without J774, 10 μg/ml)"
~500%,approximately 50%,300%,50%,drastic reduction,"OC1C(O)C(O)C2OC2C1O (stereo not shown) [CBE, 7-oxabicyclo[4.1.0]heptane-2,3,4,5-tetrol]",60 % of control,–,–,–,–,–,–,–,–,–,–
–,–,–,–,–,"CN(C)[C@@H]1C(O)=C(C(N)=O)C(=O)[C@@]2(O)C(O)=C3C(=O)c4c(O)cccc4[C@@](C)(O)[C@H]3C[C@@H]12 [tet, tetracycline]",–,1 × 10^6,3.3,1 × 10^7,>1 × 10^8,>1 × 10^8,1,1 × 10^6,3.3 × 10^6,>1 × 10^8,>1 × 10^8
